# “And” between values parts separate entries of the source, which are not always exact repeats. Equal values may be shown once.
# Legend:
# Format in all cases: cell-based
# PC-12 cells = test: Ischaemia (oxygen-glucose deprivation)-induced cell death in NGF-differentiated PC-12 cells, Trypan Blue exclusion; conditions: for decrease in cell death: vs. ischemia alone
# Method: PC-12 cells were maintained on flasks coated with Collagen typel in PC-12 media with the following composition; RPMI 1640 without L-glutamine with 2 mM L-glutamine, 10 mM HEPES, 1 mM Sodium Pyruvate, additional glucose to give a final concentration of 4.5 g/L (RPMI normally has 2 g/L), 10% heat inactivated horse serum, 5% foetal calf serum and 50 units of penicillin/streptomycin. Media was changed every 2 days.
# Confluent cultures of PC-12 cells were differentiated by culturing for 7 days in PC-12 medium without serum but with 50 ng/mlNGF (PC-12 NGF media). The cells were harvested, washed, counted and 1×10^5 PC-12 cells/well were plated overnight in a micro titre plate in glucose free PC-12 NGF medium. The medium was then changed to glucose-free PC-12 NGF medium containing the compounds to be tested and the plates left under normoxic conditions for 30 minutes.
# During this stage, the media and test substances for the anoxic exposure were placed in a chamber and de-oxygenated with 95% N2/5% CO2. The media in the plates was changed with the de-oxygenated media and the plates then placed in an anaerobic chamber gassed with 95% N2 5% CO2 for 10 minutes before being sealed and incubated at 37° C. overnight (18 hours). For normoxia controls, the cells were treated identically to ischemic treatments except that all incubations were in 5% CO2/95% air.
# Viability was determined using Trypan Blue exclusion.
# rat sensory neurones [1] = test: Neurite growth of sensory neurones in primary culture (anti β-Tubulin, In Cell Analyzer)
# Method: Rat sensory neurones were prepared according to the method described by Hall et al. 1997 (Hall A K, Ai X, Hickman G E, MacPhedran S E, Nduaguba C O, Robertson C P. The generation of neuronal heterogeneity in a rat sensory ganglion. J. Neurosci. 1997 Apr. 15; 17(8):2775-84). Briefly, female rats (15 days gestation) were killed by cervical dislocation (Rats Wistar; Janvier, Le Genest-St-Isle, France) and the foetuses removed from the uterus. Their spinal cords with the dorsal root ganglia (DRG) were removed and placed in ice-cold medium of Leibovitz (L15, Fisher 11415-049) containing Penicillin 50 Ul/ml-Streptomycin 50 pg/ml (PS, 1%) and bovine serum albuminutes (BSA 1%, Sigma A6003). The DRG were recovered and dissociated by trypsinisation for 20 minutes at 37° C. (trypsin EDTA 10×, 10%, Fisher 15400054) diluted in PBS without calcium and magnesium (Fisher 2007-03). The reaction was stopped by addition of Dulbecco modified Eagle medium (DMEM, Fisher 21969-035) containing DNase I grade II (0.1 mg/ml Roche diagnostic 104159) and foetal bovine serum (FBS 10%, Fisher 10270-098). The cell suspension was triturated with a 10 ml pipette and centrifuged at 350×g for 10 minutes at room temperature. The pellet of dissociated cells was then resuspended in defined culture medium.
# Viable cells were counted in a Neubauer cytometer using the trypan blue exclusion test (Sigma) and seeded at a density of 25 000 cells/well in 96 well-plates (Nunc). Wells were pre-coated with poly-L-lysine (10 μg/ml, Sigma P2636) in ultra pure sterile water (Merck Eurolab 60759.01).
# Cells were allowed to adhere for 2 hours and maintained in a humidified incubator at 37° C. in 5% CO2/95% air atmosphere.
# The culture medium was changed into a defined culture medium after a 12 hours incubation period following the conditions described below:
# NGF 50 ng/ml and 10 ng/ml (in 0.1% DMSO)
# After 6 hours, 12 hours and 24 hours of incubation with 7β-OH EPIA, cells were fixed for 5 minutes in an ethanol/acetic acid solution (95%/5%) at −20° C. and rinsed 3 times in PBS.
# Motor neurones and sensory neurones were labelled by monoclonal anti β-Tubulin antibody (Sigma T8660) diluted at 1:400 in incubation solution (PBS with 5% of FCS and 0.1% of saponin, Sigma S-7900). This antibody specifically labels neurone cell bodies and neurites.
# After 2 hours of incubation, the cells were washed in PBS and incubated with Alexa Fluor 488 goat anti mouse IgG (Molecular Probes A11001) diluted at 1:300 in incubation solution to reveal the 8-Tubulin III antibodies.
# Analysis of the total length of neurones labelled with anti β-Tubulin antibodies (neurones) were carried out using In Cell Analyzer 1000 3.2.Workstation software.
# The results were expressed in percentage compared to the vehicle. Comparison of groups was carried out using the unpaired T test.
# rat sensory neurones [2] = test: Cisplatin-induced loss of neurite density in primary dorsal root ganglia sensory neurones (anti β-Tubulin); conditions: 10 ng/ml, cisplatin 3 μg/ml
# Method: (§1) Primary cultures of dissociated dorsal root ganglia sensory neurones were incubated with 3 μg/ml cisplatin, with and without 7β-OH EPIA for 48 hours and 72 hours and the following parameters were evaluated:
# neurite network density stained with an anti 8-Tubulin antibody
# (§2) Rat sensory neurones were prepared according to the method described by Hall et al 1997 [Hall et al. (J. Neurosci. 1997 Apr. 15; 17(8); 2775-84]. Briefly, a female rat (15 days gestation) was killed by cervical dislocation (Rats Wistar; Janvier, Le Genest-St-lsle, France) and the foetuses removed from the uterus. Their spinal cords with the dorsal root ganglia (DRG) were removed and placed in ice-cold medium of Leibovitz (L15, Fisher 11415-049) containing Penicillin 50 UI/ml-Streptomycin 50 μg/ml (PS, 1%) and bovine serum albuminutes (BSA 1%, Sigma A6003). The DRG were recovered and dissociated by trypsinisation for 20 minutes at 37° C. (trypsin EDTA 10×, 10%, Fisher 15400054) diluted in PBS without calcium and magnesium (Fisher 2007-03). The reaction was stopped by addition of Dulbecco modified Eagle medium (DMEM, Fisher 21969-035) containing DNase I grade II (0.1 mg/ml Roche diagnostic 104159) and foetal bovine serum (FBS 10%, Fisher 10270-098). The cell suspension was triturated with a 10 ml pipette and centrifuged at 350×g for 10 minutes at room temperature. The pellet of dissociated cells was then resuspended in defined culture medium.
# (§3) Viable cells were counted in a Neubauer cytometer using the trypan blue exclusion test (Sigma) and seeded at a density of 30 000 cells/well in 96 well-plates (Nunc). Wells were pre-coated with poly-L-lysine (10 μg/ml, Sigma P2636) in ultra pure sterile water (Merck Eurolab 60759.01).
# (§4) Cells were allowed to adhere for 2 h and maintained in a humidified incubator at 37° C. in 5% CO2/95% air atmosphere.
# (§5) After 5 days of culture, the culture medium was changed into a defined culture medium following the different conditions described below:
# (§6) Test compound 7β-OH EPIA (1 nM, 10 nM and 100 nM)+cisplatin (3 μg/ml)
# (§7) Reference compound NGF (10 ng/ml)+cisplatin (3 μg/ml)
# (§8) Six wells per condition were carried out to assess neuronal survival. After 48 hours and 72 hours of incubation, the neuronal cells were fixed for 5 minutes in an ethanol/acetic acid solution (95%/5%) at −20° C. and rinsed 3 times in PBS.
# (§9) Cell bodies of sensory neurones were labelled by monoclonal anti MAP-2 antibody (Sigma M4403) and the neurite of sensory neurones were labelled by monoclonal β-Tubulin antibody (Sigma T8660). These antibodies were diluted at 1:400 in incubation solution (PBS with 5% of FCS and 0.1% of saponin, Sigma S-7900). These antibodies specifically label neurone cell bodies and neuritis, respectively.
# (§10) After 2 hours of incubation, the cells were washed in PBS and incubated with Alexa Fluor 488 goat anti mouse IgG (Molecular Probes A11001) diluted at 1:300 in incubation solution to reveal the MAP-2 and the β-Tubulin antibodies. Cell nuclei were stained with a fluorescent marker (Hoechst staining solution, SIGMA H6024, 1 μg/ml in incubation solution during 1 hour).
# (§11) For each condition, 2 pictures per well (12 pictures per condition) were taken using In Cell Analyzer 1000 (Amersham Biosciences) controlled by the computer software In Cell Analyzer 1000 3.2. For the MAP-2 labelling, the magnification was ×10, for the β-Tubulin labelling, the magnification was ×20. For each labelling, all the images were taken in the same conditions.
# (§12) Analysis of the number of cell bodies labelled with anti-MAP-2 antibodies, and total length of neurites labelled with anti β-Tubulin antibodies, were carried out using In Cell Analyzer 1000 3.2.Workstation software. The results were expressed in percentage compared to the vehicle. The comparisons of each group were carried out using the unpaired T test.
# rat sensory neurones [3] = test: Cisplatin-induced neuronal cell death, number of cell bodies per field in dorsal root ganglia sensory neurones (anti MAP-2); conditions: 10 ng/ml, cisplatin 3 μg/ml
# Method: as §1
# neurone cell bodies stained with an anti MAP 2 antibody (microtubule associated protein 2)
# as §2, §3, §4, §5, §6, §7, §8, §9, §10, §11, §12
compound,measurement,setting,value
COc1ccc2c(c1)c(CC(=O)O)c(C)n2C(=O)c1ccc(Cl)cc1 [Indomethacin],antagonism of the protective effect of 7β-OH-EPIA,PC-12 cells; 10 μM indomethacin with 1 μM and 10 μM 7β-OH-EPIA,fully antagonised
same,decrease in cell death,PC-12 cells; 10 μM,no direct effect
same,decrease in cell death,PC-12 cells; 100 μM,29%
C[C@]12N[C@H](Cc3ccccc31)c1ccccc12 [MK801],decrease in cell death,PC-12 cells; 10 μM,62% and 42%
"NGF: Nerve Growth Factor, a specific growth factor for sensory neurones; reference compound","Neurites length per field, % Vehicle","rat sensory neurones [1]; 10 ng/ml, 6 hours",191%
same,"Neurites length per field, Mean","rat sensory neurones [1]; 10 ng/ml, 6 hours",195.2 μm
same,"Neurites length per field, % Vehicle","rat sensory neurones [1]; 10 ng/ml, 12 hours",128%
same,"Neurites length per field, Mean","rat sensory neurones [1]; 10 ng/ml, 12 hours",381.3 μm
same,"Neurites length per field, % Vehicle","rat sensory neurones [1]; 10 ng/ml, 24 hours",371%
same,"Neurites length per field, Mean","rat sensory neurones [1]; 10 ng/ml, 24 hours",819.9 μm
same,"Neurites length per field, % Vehicle","rat sensory neurones [1]; 50 ng/ml, 6 hours",273%
same,"Neurites length per field, Mean","rat sensory neurones [1]; 50 ng/ml, 6 hours",279.1 μm
same,"Neurites length per field, % Vehicle","rat sensory neurones [1]; 50 ng/ml, 12 hours",216%
same,"Neurites length per field, Mean","rat sensory neurones [1]; 50 ng/ml, 12 hours",644.3 μm
same,"Neurites length per field, % Vehicle","rat sensory neurones [1]; 50 ng/ml, 24 hours",309%
same,"Neurites length per field, Mean","rat sensory neurones [1]; 50 ng/ml, 24 hours",682.1 μm
same,% Control without cisplatin (neurite length),rat sensory neurones [2]; 48 hours,117%
same,Mean neurite length,rat sensory neurones [2]; 48 hours,6362.44 μm
same,% Control without cisplatin (neurite length),rat sensory neurones [2]; 72 hours,113%
same,Mean neurite length,rat sensory neurones [2]; 72 hours,6000.30 μm
same,% Control without cisplatin (cell bodies),rat sensory neurones [3]; 48 hours,96%
same,"number of cell bodies per field, Average",rat sensory neurones [3]; 48 hours,58.33
same,% Control without cisplatin (cell bodies),rat sensory neurones [3]; 72 hours,1.2%
same,"number of cell bodies per field, Average",rat sensory neurones [3]; 72 hours,54.92
